Results reported in patent US9403855B2 (priority 2010, dated 2016).
Values joined by “and” are separate entries in the source; they are usually repeats but may differ in a detail not shown here. Equal values may be shown once.

Key:
[1] = target: neuraminidase of A/Udorn/307/1972 (H3N2) (Influenza A virus, UniProt P0DOF6); assay: biochemical; design: species or system Influenza virus A/Udorn/307/1972 (H3N2)
[2] = system: A/California/7/2009 (pandemic H1N1); assay: microbe, parasite or virus in culture; type: cell-based, Influenza virus A/California/7/2009 (pandemic H1N1); conditions: Influenza A virus, H1N1, read-out: EC50 (anti-influenza activity)
[3] = target: neuraminidase of A/California/7/2009 (pandemic H1N1) (Influenza A virus, UniProt C3W6G3); assay: biochemical; design: species or system Influenza virus A/California/7/2009 (pandemic H1N1)
A/WSN/1933 (H1N1) = assay: microbe, parasite or virus in culture; type: cell-based, Influenza virus A/WSN/1933 (H1N1); conditions: Influenza A virus, read-out: EC50 (anti-influenza activity)
[4] = system: A/Vietnam/1194/2004 RG14 (H5N1); assay: microbe, parasite or virus in culture; type: cell-based, Influenza virus A/Vietnam/1194/2004 RG14 (H5N1); conditions: Influenza A virus, H5N1, read-out: EC50 (anti-influenza activity)
A/Udorn/307/1972 (H3N2) = assay: microbe, parasite or virus in culture; type: cell-based, Influenza virus A/Udorn/307/1972 (H3N2); conditions: Influenza A virus, H3N2, read-out: EC50 (anti-influenza activity)
in vitro = conditions: human
[5] = target: neuraminidase of A/WSN/1933 (H1N1) (Influenza A virus, UniProt P03470); assay: biochemical; design: species or system Influenza virus A/WSN/1933 (H1N1)
[6] = system: mixed 293T cells expressing 274H and 274Y neuraminidase of A/Hanoi/30408/2005 (H5N1); type: binding
[7] = system: 274H influenza virus (WSN), immobilized; type: binding
[8] = system: wild type (274H) neuraminidase of A/Hanoi/30408/2005 (H5N1) on 293T cells; type: binding
[9] = in vivo; cited from earlier work

Chain of neuraminidase of A/Udorn/307/1972 (H3N2) (P0DOF6 whole entry, looked up): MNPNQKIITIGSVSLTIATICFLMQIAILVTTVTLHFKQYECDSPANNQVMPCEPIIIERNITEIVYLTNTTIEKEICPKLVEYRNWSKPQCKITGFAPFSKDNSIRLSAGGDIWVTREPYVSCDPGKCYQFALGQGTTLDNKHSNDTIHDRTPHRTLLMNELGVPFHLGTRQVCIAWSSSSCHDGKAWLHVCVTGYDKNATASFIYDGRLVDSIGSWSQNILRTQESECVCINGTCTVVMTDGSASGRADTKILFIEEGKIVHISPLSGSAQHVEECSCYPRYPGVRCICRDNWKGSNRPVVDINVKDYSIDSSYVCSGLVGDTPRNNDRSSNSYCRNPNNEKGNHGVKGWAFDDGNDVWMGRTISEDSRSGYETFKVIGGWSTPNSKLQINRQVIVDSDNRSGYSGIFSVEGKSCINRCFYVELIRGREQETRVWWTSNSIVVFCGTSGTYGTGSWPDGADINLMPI
Chain of neuraminidase of A/WSN/1933 (H1N1) (P03470 whole entry, looked up): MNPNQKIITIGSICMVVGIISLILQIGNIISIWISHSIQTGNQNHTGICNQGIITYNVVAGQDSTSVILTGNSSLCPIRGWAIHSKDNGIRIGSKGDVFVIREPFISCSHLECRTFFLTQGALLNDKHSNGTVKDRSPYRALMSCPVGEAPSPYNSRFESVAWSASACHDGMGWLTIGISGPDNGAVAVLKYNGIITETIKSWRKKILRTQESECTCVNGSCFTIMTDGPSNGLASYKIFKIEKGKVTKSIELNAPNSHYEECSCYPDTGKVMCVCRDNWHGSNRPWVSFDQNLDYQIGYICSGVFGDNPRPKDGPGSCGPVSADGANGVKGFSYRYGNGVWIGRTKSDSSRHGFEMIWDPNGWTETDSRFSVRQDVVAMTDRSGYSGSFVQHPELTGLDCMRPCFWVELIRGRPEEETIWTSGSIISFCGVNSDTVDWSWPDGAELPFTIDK

Compound | IC50 [1] [nM] | EC50 [2] [nM] | IC50 [3] [nM] | EC50 (A/WSN/1933 (H1N1)) [nM] | EC50 [4] [nM] | EC50 (A/Udorn/307/1972 (H3N2)) [nM] | CC50 (in vitro) [nM] | IC50 [5] [nM] | percentage of ZB labeled cells [6] | residual ZB binding in OC competition [7] | melting point [°C] | percentage of ZB labeled cells [8] [%] | Bioavailability [9] [%]
CC(=O)N[C@H]1[C@H]([C@H](O)[C@H](O)CO)OC(P(=O)(O)O)=C[C@@H]1N [1a, (5-Acetamido-4-amino-6-(1,2,3-hydroxy)propyl-4,5,6-trihydropyran-2-yl) phosphonic acid] | 6.4 | 20.3 | 0.9 | 1.3 | 978 | 55 | > 30000 | 0.65 |  |  |  |  | 
CC(=O)N[C@H]1[C@H]([C@H](O)[C@H](O)CO)OC(P(=O)(O)O)=C[C@@H]1NC(=N)N [1b, (5-Acetamido-4-guanidino-6-(1,2,3-hydroxy)propyl-4,5,6-trihydropyran-2-yl) phosphonic acid] | 5.2 | 26.5 | 0.8 | 2.4 | 1700 ± 500 | 32 ± 23 | > 50000 | 1.2 |  |  |  |  | 
CCC(CC)O[C@@H]1C=C(C(=O)O)C[C@H](N)[C@H]1NC(C)=O [Oseltamivir acid, oseltamivir carboxylic acid, reference compound] |  | 76 |  | 12.2 ± 2.3 | 1250 ± 440 | 3 ± 1.8 | > 100000 |  |  |  |  |  | 
CC(=O)N[C@H]1[C@H]([C@H](OC(=O)NCc2cn(CCCCCNC(=O)CCCCC3SC[C@@H]4NC(=O)N[C@H]34)nn2)[C@H](O)CO)OC(C(=O)O)=C[C@@H]1NC(=N)N (stereo partly shown) [ZB] |  |  |  |  |  |  |  |  | 84.4% and 84.62% and 86.07% and 83.58% | about 3% | 170 to 172 | 83.95 | 
CC(=O)N[C@H]1[C@H]([C@H](O)[C@H](O)CO)OC(C(=O)O)=C[C@@H]1N=C(N)N [Zanamivir, reference compound] |  | 267 |  | 23.5 ± 8.5 | 16400 ± 2980 | 41 ± 6 | > 100000 |  |  |  |  |  | 2
